This is an account of results in patent publication US8802700B2 (Vertex Pharmaceuticals Incorporated, priority 2010, dated 2014).

The target in the first assay is T1, ΔF508-CFTR (Homo sapiens, UniProt P13569, DEL508-508).
T1 construct: expressed in transfected cells
T1 sequence (P13569 with tags, fused parts or gaps DEL508-508): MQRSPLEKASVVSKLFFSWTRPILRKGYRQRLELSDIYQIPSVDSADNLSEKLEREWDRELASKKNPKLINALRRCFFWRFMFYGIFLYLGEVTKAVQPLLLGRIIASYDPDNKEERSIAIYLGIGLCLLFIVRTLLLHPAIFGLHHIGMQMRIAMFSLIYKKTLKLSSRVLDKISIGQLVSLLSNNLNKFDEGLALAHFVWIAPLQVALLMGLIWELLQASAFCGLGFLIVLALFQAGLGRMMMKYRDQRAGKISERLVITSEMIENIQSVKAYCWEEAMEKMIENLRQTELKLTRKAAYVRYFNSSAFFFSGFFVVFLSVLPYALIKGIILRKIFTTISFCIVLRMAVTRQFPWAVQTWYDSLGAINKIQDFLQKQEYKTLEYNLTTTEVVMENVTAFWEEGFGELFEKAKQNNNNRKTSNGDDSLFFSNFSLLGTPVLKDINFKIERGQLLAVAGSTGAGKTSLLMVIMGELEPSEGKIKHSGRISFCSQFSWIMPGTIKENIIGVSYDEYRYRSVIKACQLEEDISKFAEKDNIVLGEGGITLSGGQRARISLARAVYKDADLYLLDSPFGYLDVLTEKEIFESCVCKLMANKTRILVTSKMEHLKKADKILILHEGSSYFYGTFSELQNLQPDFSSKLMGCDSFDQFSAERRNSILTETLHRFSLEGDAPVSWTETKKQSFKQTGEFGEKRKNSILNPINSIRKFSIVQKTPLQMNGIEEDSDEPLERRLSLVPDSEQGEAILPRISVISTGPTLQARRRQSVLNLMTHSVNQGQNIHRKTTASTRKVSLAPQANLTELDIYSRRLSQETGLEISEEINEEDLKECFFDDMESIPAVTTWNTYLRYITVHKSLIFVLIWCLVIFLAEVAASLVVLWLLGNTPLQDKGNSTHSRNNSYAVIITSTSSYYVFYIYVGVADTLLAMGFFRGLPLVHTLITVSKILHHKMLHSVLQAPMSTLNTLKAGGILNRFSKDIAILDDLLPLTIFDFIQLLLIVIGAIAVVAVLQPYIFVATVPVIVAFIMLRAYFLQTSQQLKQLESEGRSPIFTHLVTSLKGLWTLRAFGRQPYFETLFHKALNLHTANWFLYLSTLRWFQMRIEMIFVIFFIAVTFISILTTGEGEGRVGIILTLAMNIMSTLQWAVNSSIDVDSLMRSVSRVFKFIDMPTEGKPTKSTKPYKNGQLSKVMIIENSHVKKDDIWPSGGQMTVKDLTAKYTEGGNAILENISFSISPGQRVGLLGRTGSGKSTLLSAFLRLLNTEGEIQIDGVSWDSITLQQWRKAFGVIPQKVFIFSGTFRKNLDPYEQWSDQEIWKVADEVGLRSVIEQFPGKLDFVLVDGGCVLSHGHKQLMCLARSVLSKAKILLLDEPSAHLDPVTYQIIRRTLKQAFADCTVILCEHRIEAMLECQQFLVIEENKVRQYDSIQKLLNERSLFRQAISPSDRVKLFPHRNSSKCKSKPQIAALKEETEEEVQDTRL
In words: Membrane potential optical assay (FRET voltage-sensor dyes, VIPR), identification of potentiator compounds. The format is cell-based. Particulars: Table 3; assay not given. The procedure, abridged:
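Potentiator screen measured membrane potential via FRET between CC2-DMPE donor and DiSBAC2(3), read on VIPR II. Compound went in with the first addition of chloride-free gluconate bath; cells were ΔF508-CFTR-expressing NIH3T3 mouse fibroblasts, temperature-corrected at 27 °C for 24 h.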
For the compound `O=C(Nc1ccc(C2CCCCC2)cc1)c1c[nH]c2ccccc2c1=O` [Compound 140, N-(4-cyclohexylphenyl)-4-oxo-1H-quinoline-3-carboxamide], the EC50 is less than 10 µM.
The same measure, in the same setting: the result for `C[C@@H]1CCCN1c1ccc(NC(=O)c2c[nH]c3ccccc3c2=O)c(C(F)(F)F)c1` [Compound 572, (R)-N-(4-(2-methylpyrrolidin-1-yl)-2-(trifluoromethyl)phenyl)-4-oxo-1,4-dihydroquinoline-3-carboxamide] reads less than 10 µM.

The same assay, now with this note: Table 3; assay not given; read-out: % Activity (% Efficacy, relative efficacy).
As for `Cc1ccc2[nH]cc(C(=O)Nc3ccc(N4CCCC4C)cc3C(F)(F)F)c(=O)c2c1` (stereo not shown) [Compound 503, 6-methyl-N-[4-(2-methylpyrrolidin-1-yl)-2-(trifluoromethyl)phenyl]-4-oxo-1H-quinoline-3-carboxamide], the Emax was 25 to 100%.
For the compound `O=C(Nc1cccc(Cc2ccccc2)c1)c1c[nH]c2ccccc2c1=O` [Compound 389, N-(3-benzylphenyl)-4-oxo-1H-quinoline-3-carboxamide], the Emax lay in the range of 25 to 100%.
Same read-out and setting: the result for `CC(C)(C)c1ccccc1Oc1ccccc1NC(=O)c1c[nH]c2ccccc2c1=O` [Compound 178, 4-oxo-N-[2-(2-tert-butylphenoxy)phenyl]-1H-quinoline-3-carboxamide] reads 25 to 100%.
For `O=C(Nc1cc2c(cc1O)CCCC2)c1c[nH]c2ccccc2c1=O` [Compound 56, 1,4-dihydro-N-(1,2,3,4-tetrahydro-6-hydroxynaphthalen-7-yl)-4-oxoquinoline-3-carboxamide], the Emax lay within 25 to 100%.
Take `CCC(C)c1ccc(NC(=O)c2c[nH]c3ccccc3c2=O)cc1` (stereo not shown) [Compound 310, 4-oxo-N-(4-sec-butylphenyl)-1H-quinoline-3-carboxamide]: the Emax lay within 25 to 100%.
Turning to `CC(C)(CNC(=O)OCC1CCOC1)c1ccc(NC(=O)c2c[nH]c3ccccc3c2=O)cc1` (stereo not shown) [Compound 396, [2-methyl-2-[4-[(4-oxo-1H-quinolin-3-yl)carbonylamino]phenyl]-propyl]aminoformic acid tetrahydrofuran-3-ylmethyl ester], the Emax was 25 to 100%.
As for `O=C(Nc1ccc(C(F)(F)F)cc1)c1c[nH]c2ccccc2c1=O` [Compound 236, 4-oxo-N-[4-(trifluoromethyl)phenyl]-1H-quinoline-3-carboxamide], the Emax was 25 to 100%.
On the same count and under the same terms, in the case of `O=C(Nc1ccc2ccccc2c1)c1c[nH]c2ccccc2c1=O` [Compound 481, N-(2-naphthyl)-4-oxo-1H-quinoline-3-carboxamide] it was 25 to 100%; in that of `CSc1nc2ccccc2c(O)c1C(=O)Nc1ccc2cc[nH]c2c1` [Compound 374, 4-hydroxy-N-(1H-indol-6-yl)-2-methylsulfanyl-quinoline-3-carboxamide], less than 25%.
Turning to `Cc1cccc2[nH]cc(C(=O)Nc3ccc(N4CCCC(C)C4)cc3C(F)(F)F)c(=O)c12` (stereo not shown) [Compound 643, 5-methyl-N-[4-(3-methyl-1-piperidyl)-2-(trifluoromethyl)phenyl]-4-oxo-1H-quinoline-3-carboxamide], the Emax is 25 to 100%.
Regarding `CCOc1ccc(-c2ccccc2NC(=O)c2c[nH]c3ccccc3c2=O)cc1` [Compound 348, N-[2-(4-ethoxyphenyl)phenyl]-4-oxo-1H-quinoline-3-carboxamide], the Emax lay in the range of 25 to 100%.
On to `O=C(Nc1cc2[nH]ccc2cc1C(F)(F)F)c1c[nH]c2ccccc2c1=O` [Compound 234, 4-oxo-N-[5-(trifluoromethyl)-1H-indol-6-yl]-1H-quinoline-3-carboxamide], for which the Emax is 25 to 100%.
`O=C(Nc1ccc2c(c1)NCC2)c1c[nH]c2ccccc2c1=O` [Compound 258, N-Indolin-6-yl-4-oxo-1H-quinoline-3-carboxamide]: the Emax was in the range of 25 to 100%.
Consider `COc1cc(N2CCCC2)ccc1NC(=O)c1c[nH]c2ccccc2c1=O` [Compound 675, N-(2-methoxy-4-pyrrolidin-1-yl-phenyl)-4-oxo-1H-quinoline-3-carboxamide], for which the Emax lay in the range of 25 to 100%.
On to `O=C(Nc1cc2[nH]ccc2cc1F)c1c[nH]c2ccc(F)cc2c1=O` [Compound 254, 6-fluoro-N-(5-fluoro-1H-indol-6-yl)-4-oxo-1H-quinoline-3-carboxamide], for which the Emax lay within 25 to 100%.
In the case of `COc1ccc(C(C)C)cc1-c1ccccc1NC(=O)c1c[nH]c2ccccc2c1=O` [Compound 59, N-[2-(5-isopropyl-2-methoxy-phenyl)phenyl]-4-oxo-1H-quinoline-3-carboxamide], the Emax is greater than 100%.
`CC(C)(C)c1ccc(NC(=O)c2c[nH]c3ccc(F)cc3c2=O)cc1F` [Compound 527, 6-fluoro-N-(3-fluoro-4-tert-butyl-phenyl)-4-oxo-1H-quinoline-3-carboxamide]: the Emax lay within 25 to 100%.
The same measure, in the same setting: the result for `CN(c1ccc(F)cc1)S(=O)(=O)c1ccc2[nH]cc(C(=O)Nc3cc(O)c(C(C)(C)C)cc3C(C)(C)C)c(=O)c2c1` [Compound 137, 6-[(4-fluorophenyl)-methyl-sulfamoyl]-N-(5-hydroxy-2,4-ditert-butyl-phenyl)-4-oxo-1H-quinoline-3-carboxamide] reads 25 to 100%; that for `CCCc1ccc(NC(=O)c2c[nH]c3ccccc3c2=O)cc1N` [Compound 160, N-(3-amino-4-propyl-phenyl)-4-oxo-1H-quinoline-3-carboxamide], 25 to 100%; that for `CC(C)(C)c1cc(C(C)(C)C)c(NC(=O)c2c[nH]c3cccc(O)c3c2=O)cc1O` [Compound 464, 5-hydroxy-N-(5-hydroxy-2,4-ditert-butyl-phenyl)-4-oxo-1H-quinoline-3-carboxamide], 25 to 100%.
On the same count and under the same terms, in the case of `CCc1ccc(NC(=O)c2c[nH]c3ccccc3c2=O)cc1N` [Compound 8, N-(3-amino-4-ethyl-phenyl)-4-oxo-1H-quinoline-3-carboxamide] it was 25 to 100%; in that of `CCOC(=O)c1c(NC(=O)c2c[nH]c3ccccc3c2=O)ccc2cc[nH]c12` [Compound 412, 6-[(4-oxo-1H-quinolin-3-yl)carbonylamino]-1H-indole-7-carboxylic acid ethyl ester], 25 to 100%; in that of `CC(C)(C)c1cc(C(C)(C)C)c(NC(=O)c2c[nH]c3ccc(C#N)cc3c2=O)cc1O` [Compound 525, 6-cyano-N-(5-hydroxy-2,4-ditert-butyl-phenyl)-4-oxo-1H-quinoline-3-carboxamide], less than 25%.
Turning to `O=C(Nc1cc(Cl)cc(NS(=O)(=O)CCN2CCOCC2)c1)c1c[nH]c2ccccc2c1=O` [Compound 46, N-[3-chloro-5-(2-morpholinoethylsulfonylamino)phenyl]-4-oxo-1H-quinoline-3-carboxamide], the Emax lay within 25 to 100%.
With `Cc1cccc2[nH]cc(C(=O)Nc3ccc(N4CCC(C)(C)C4)cc3C(F)(F)F)c(=O)c12` [Compound 578, N-[4-(3,3-dimethylpyrrolidin-1-yl)-2-(trifluoromethyl)phenyl]-5-methyl-4-oxo-1H-quinoline-3-carboxamide], the Emax was in the range of 25 to 100%.
On the same count and under the same terms, in the case of `O=C(Nc1cc(O)c(C23CC4CC(CC(C4)C2)C3)cc1F)c1cnc2ccccc2c1O` [Compound 395, N-[4-(1-adamantyl)-2-fluoro-5-hydroxy-phenyl]-4-hydroxy-quinoline-3-carboxamide] it was 25 to 100%; in that of `CNc1ccc(C(C)C)c(NC(=O)c2c[nH]c3ccccc3c2=O)c1` [Compound 399, N-(2-isopropyl-5-methylamino-phenyl)-4-oxo-1H-quinoline-3-carboxamide], 25 to 100%.
For `COc1ccccc1Oc1ccc(C(F)(F)F)cc1NC(=O)c1c[nH]c2ccccc2c1=O` [Compound 3, N-[2-(2-methoxyphenoxy)-5-(trifluoromethyl)phenyl]-4-oxo-1H-quinoline-3-carboxamide], the Emax was 25 to 100%.
For the compound `O=C(Nc1ccc(C2CCCCC2)cc1)c1c[nH]c2ccccc2c1=O` [Compound 140, N-(4-cyclohexylphenyl)-4-oxo-1H-quinoline-3-carboxamide], the Emax fell in the range of 25 to 100%.
With `Cc1ccc2c(=O)c(C(=O)Nc3cc4[nH]ccc4cc3C(F)(F)F)c[nH]c2c1` [Compound 576, 7-methyl-4-oxo-N-[5-(trifluoromethyl)-1H-indol-6-yl]-1H-quinoline-3-carboxamide], the Emax is 25 to 100%.
The same measure, in the same setting: the result for `CC1CCN(c2ccccc2NC(=O)c2c[nH]c3ccccc3c2=O)CC1` [Compound 372, N-[2-(4-methyl-1-piperidyl)phenyl]-4-oxo-1H-quinoline-3-carboxamide] reads 25 to 100%; that for `CCOc1ccccc1-c1ccc(N)cc1NC(=O)c1c[nH]c2ccccc2c1=O` [Compound 393, N-[5-amino-2-(2-ethoxyphenyl)-phenyl]-4-oxo-1H-quinoline-3-carboxamide], 25 to 100%.
With `CC(C)(C)c1cc2cc[nH]c2cc1NC(=O)c1c[nH]c2cccc(O)c2c1=O` [Compound 500, 5-hydroxy-4-oxo-N-(5-tert-butyl-1H-indol-6-yl)-1H-quinoline-3-carboxamide], the Emax lay in the range of 25 to 100%.
Take `COc1ccc(-c2ccccc2NC(=O)c2c[nH]c3ccccc3c2=O)cc1` [Compound 305, N-[2-(4-methoxyphenyl)phenyl]-4-oxo-1H-quinoline-3-carboxamide]: the Emax is greater than 100%.
For the compound `CC(C)c1ccc(-c2cc3cc[nH]c3cc2NC(=O)c2c[nH]c3ccccc3c2=O)cc1` [Compound 342, N-[5-(4-isopropylphenyl)-1H-indol-6-yl]-4-oxo-1H-quinoline-3-carboxamide], the Emax lay in the range of 25 to 100%.
As to `C[C@@H]1CCCN1c1ccc(NC(=O)c2c[nH]c3ccccc3c2=O)c(C(F)(F)F)c1` [Compound 572, (R)-N-(4-(2-methylpyrrolidin-1-yl)-2-(trifluoromethyl)phenyl)-4-oxo-1,4-dihydroquinoline-3-carboxamide], the Emax lay in the range of 25 to 100%.
Consider `C[C@H]1CCCN1c1ccc(NC(=O)c2c[nH]c3cccc(C(F)(F)F)c3c2=O)c(C(F)(F)F)c1` [Compound 669, (S)-N-(4-(2-methylpyrrolidin-1-yl)-2-(trifluoromethyl)phenyl)-4-oxo-5-(trifluoromethyl)-1,4-dihydroquinoline-3-carboxamide], for which the Emax fell in the range of 25 to 100%.
`CC(C)(C)c1cc(C(C)(C)C)c(NC(=O)c2c[nH]c3c(F)ccc(F)c3c2=O)cc1O` [Compound 718, 5,8-difluoro-N-(5-hydroxy-2,4-ditert-butyl-phenyl)-4-oxo-1H-quinoline-3-carboxamide]: the Emax is 25 to 100%.
